In EP4733761A1, “METHOD FOR SCREENING FOR PROTEINS ASSOCIATED WITH NEURODEGENERATIVE DISEASES AND THERAPEUTIC OR PROPHYLACTIC DRUGS FOR NEURODEGENERATIVE DISEASES” (priority 2023, dated 2026):
Peptide text beside a SMILES is read from it. * marks the point of attachment. Dansyl = CN(C)c1cccc2c(S(=O)(=O)*)cccc12

Columns and labels:
Dnc-PR20/Kapβ2 = test: Screening for DPRs-Kapβ2 binding inhibitors with additives (probe fluorescence attenuation); parameters: species or system human; settings: Dnc-PR20 300 nM, Kapβ2 400 nM
Protocol: A buffer solution (20 mM Tris-HCl (pH 7.5), 150 mM NaCl, and 2 mM DTT (final concentration)) was used to prepare a mixture of Dnc-PR20 (final concentration 300 nM) and Kapβ2 (final concentration 400 nM), and an automatic dispensing system (Andrew+, Andrew Alliance) was used to add 20 µL/well of each to a 384-well microplate (Corning, 3820). After incubation at 35°C for 10 min, the fluorescence intensity (fluorescence wavelength: 520 nm) and fluorescence spectrum (fluorescence wavelength: 400-700 nm) were measured at an excitation wavelength of 340 nm using a microplate reader (Cytation 5, BioTek). Then, 5 µL/well of various concentrations of additives (poly K50 or IgG/pure water) were added using an automated pipetting system, and after incubation at 35°C for 10 minutes, the fluorescence intensity and fluorescence spectrum were measured under the same conditions. As a control, the Dnc-PR20 solution without Kapβ2 was measured for fluorescence intensity and fluorescence spectrum in the same manner.
In addition to poly K50 and IgG, the 520 nm fluorescence intensity of Dnc-PR20 was measured with PAMAM, GST-M9M, RanGTP, ATP, and HSA as additives, using the same procedure as in Section 6 above.

Kapβ2 = test: Kapβ2-induced fluorescence change of dansyl-DPR probes; assay type: binding, human; settings: for fluorescence intensity / spectrum change on addition of Kapβ2: various Kapβ2 concentrations
Protocol: (§1) A buffer solution (20 mM Tris-HCl (pH 7.5), 150 mM NaCl, and 2 mM DTT (final concentration)) was used to prepare the probe solutions (final concentration 300 nM) for probes 1 to 7 above. Each probe solution was added to a 384-well microplate (Corning, 3575) at 30 µL/well using an automated pipetting system (Andrew+, Andrew Alliance). After incubation at 35°C for 10 min, fluorescence intensity (fluorescence wavelength: 520 nm) and fluorescence spectrum (fluorescence wavelength: 400-700 nm) at an excitation wavelength of 340 nm were measured using a microplate reader (Cytation 5, BioTek). Then, various concentrations of Kapβ2 solution (Kapβ2/pure water) were added to the 384-well microplate at 30 µL/well using an automated pipetting system. After incubation at 35°C for 10 minutes, fluorescence intensity and fluorescence spectrum were measured under the same conditions as above.

MBP-FUS = test: FUS-induced fluorescence change of dansyl-DPR probes; assay type: binding, human; settings: for fluorescence intensity / spectrum change on addition of MBP-FUS: various MBP-FUS concentrations
Protocol: as §1
The same procedure as in Section 2 above was used, except that MBP-tagged FUS (MBP-FUS) solution (MBP-FUS/pure water) was used in place of the Kapβ2 solution, to measure the fluorescence intensity and fluorescence spectra of Dnc-PR20 (probe 1) and Dnc-GP20 (probe 2).

β-lactoglobulin = test: Fluorescence change of probes by various proteins: β-lactoglobulin; assay type: binding, bovine; settings: for fluorescence spectrum / 540 nm fluorescence intensity change on addition of β-lactoglobulin: 1600 nM protein solution, probe 300 nM
Protocol: as §1
(§2) The fluorescence intensity and fluorescence spectra of Dnc-PR20 (probe 1) and Dnc-GP20 (probe 2) were measured using the same procedure as described in Section 2 above, except that aqueous solutions (1600 nM) of bovine milk-derived β-lactoglobulin, human serum-derived α1-antitrypsin, human serum-derived albumin (HSA), human serum-derived apotransferrin, chicken egg white-derived lysozyme, or human serum-derived immunoglobulin G (IgG) were used in place of the Kapβ2 solution.

[1] = tested on: α1-antitrypsin, albumin (HSA), apotransferrin, lysozyme, immunoglobulin G (IgG); test: Fluorescence change of probes by various proteins: other control proteins; assay type: binding, human; chicken; settings: 1600 nM protein solutions; probe 300 nM
Protocol: as §1, §2

Impβ = test: Fluorescence change of probes by LLPS-related proteins: Impβ; assay type: binding, human; settings: Impβ solution 1600 nM (Figure 8)
Protocol: as §1
(§3) In addition to the proteins tested in Sections 2 to 4 above, aqueous solutions of proteins that may be relevant to the formation or control of liquid-liquid phase separation (LLPS) were used to measure the 520 nm fluorescence intensity of Dnc-PR20 (probe 1) and Dnc-GP20 (probe 2). The following proteins were used as proteins that may be associated with the formation or regulation of LLPS were Imb-2, hnRNPA2LC, PPIA, Impα, Impβ, GST-M9M, and RanGTP. […]

Imb-2 = test: Fluorescence change of probes by LLPS-related proteins: Imb-2; assay type: binding, C. elegans; settings: Imb-2 solution 800 nM (Figure 8)
Protocol: as §1, §3

Impα = test: Fluorescence change of probes by LLPS-related proteins: Impα; assay type: binding, human; settings: Impα solution 1600 nM (Figure 8)
Protocol: as §1, §3

[2] = probe 300 nM, excitation 340 nm

## 50-mer polylysine [poly K50]
Dnc-PR20/Kapβ2; additive 0-300 nM
  fluorescence intensity change of Dnc-PR20 in Dnc-PR20/Kapβ2 solution: decreased in a poly K50 concentration-dependent manner
Dnc-PR20/Kapβ2; control = Dnc-PR20 solution without Kapβ2
  additive concentration resulting in a fluorescence intensity comparable to that of the control: 200 nM
Dnc-PR20/Kapβ2; various additives (Figure 10)
  520 nm fluorescence intensity change of Dnc-PR20 in Dnc-PR20/Kapβ2 mixture: attenuated

## CN(C)c1cccc2c(S(=O)(=O)NCC(=O)N3CCC[C@H]3C(=O)NCC(=O)N3CCC[C@H]3C(=O)NCC(=O)N3CCC[C@H]3C(=O)NCC(=O)N3CCC[C@H]3C(=O)NCC(=O)N3CCC[C@H]3C(=O)NCC(=O)N3CCC[C@H]3C(=O)NCC(=O)N3CCC[C@H]3C(=O)NCC(=O)N3CCC[C@H]3C(=O)NCC(=O)N3CCC[C@H]3C(=O)NCC(=O)N3CCC[C@H]3C(=O)O)cccc12 [Dnc-GP10, Dansyl-NH-(Gly-Pro)10-COOH] (Dansyl-GPGPGPGPGPGPGPGPGPGP-OH)
Kapβ2; [2]
  fluorescence intensity / spectrum change on addition of Kapβ2: unchanged

## CN(C)c1cccc2c(S(=O)(=O)NCC(=O)N3CCC[C@H]3C(=O)NCC(=O)N3CCC[C@H]3C(=O)NCC(=O)N3CCC[C@H]3C(=O)NCC(=O)N3CCC[C@H]3C(=O)NCC(=O)N3CCC[C@H]3C(=O)NCC(=O)N3CCC[C@H]3C(=O)NCC(=O)N3CCC[C@H]3C(=O)NCC(=O)N3CCC[C@H]3C(=O)NCC(=O)N3CCC[C@H]3C(=O)NCC(=O)N3CCC[C@H]3C(=O)NCC(=O)N3CCC[C@H]3C(=O)NCC(=O)N3CCC[C@H]3C(=O)NCC(=O)N3CCC[C@H]3C(=O)NCC(=O)N3CCC[C@H]3C(=O)NCC(=O)N3CCC[C@H]3C(=O)NCC(=O)N3CCC[C@H]3C(=O)NCC(=O)N3CCC[C@H]3C(=O)NCC(=O)N3CCC[C@H]3C(=O)NCC(=O)N3CCC[C@H]3C(=O)NCC(=O)N3CCC[C@H]3C(=O)O)cccc12 [Dnc-GP20, Dansyl-NH-(Gly-Pro)20-COOH] (Dansyl-GPGPGPGPGPGPGPGPGPGPGPGPGPGPGPGPGPGPGPGP-OH)
MBP-FUS; [2]
  fluorescence intensity / spectrum change on addition of MBP-FUS: hardly changed
Kapβ2; [2]
  fluorescence intensity / spectrum change on addition of Kapβ2: little changed
β-lactoglobulin
  fluorescence spectrum / 540 nm fluorescence intensity change on addition of β-lactoglobulin: did not exhibit substantial changes
[1]
  fluorescence spectrum change on addition of the other proteins: did not exhibit substantial changes

## CN(C)c1cccc2c(S(=O)(=O)NCC(=O)N[C@@H](CCCNC(=N)N)C(=O)NCC(=O)N[C@@H](CCCNC(=N)N)C(=O)NCC(=O)N[C@@H](CCCNC(=N)N)C(=O)NCC(=O)N[C@@H](CCCNC(=N)N)C(=O)NCC(=O)N[C@@H](CCCNC(=N)N)C(=O)NCC(=O)N[C@@H](CCCNC(=N)N)C(=O)NCC(=O)N[C@@H](CCCNC(=N)N)C(=O)NCC(=O)N[C@@H](CCCNC(=N)N)C(=O)NCC(=O)N[C@@H](CCCNC(=N)N)C(=O)NCC(=O)N[C@@H](CCCNC(=N)N)C(=O)O)cccc12 [Dnc-GR10, Dansyl-NH-(Gly-Arg)10-COOH] (Dansyl-GRGRGRGRGRGRGRGRGRGR-OH)
Kapβ2; [2]
  fluorescence intensity / spectrum change on addition of Kapβ2: increased in a Kapβ2 concentration-dependent manner

## C[C@H](NC(=O)[C@@H]1CCCN1C(=O)[C@H](C)NC(=O)[C@@H]1CCCN1C(=O)[C@H](C)NC(=O)[C@@H]1CCCN1C(=O)[C@H](C)NC(=O)[C@@H]1CCCN1C(=O)[C@H](C)NC(=O)[C@@H]1CCCN1C(=O)[C@H](C)NC(=O)[C@@H]1CCCN1C(=O)[C@H](C)NC(=O)[C@@H]1CCCN1C(=O)[C@H](C)NC(=O)[C@@H]1CCCN1C(=O)[C@H](C)NC(=O)[C@@H]1CCCN1C(=O)[C@H](C)NC(=O)[C@@H]1CCCN1S(=O)(=O)c1cccc2c(N(C)C)cccc12)C(=O)O [Dnc-PA10, Dansyl-NH-(Pro-Ala)10-COOH] (Dansyl-PAPAPAPAPAPAPAPAPAPA-OH)
Kapβ2; [2]
  fluorescence intensity / spectrum change on addition of Kapβ2: unchanged

## CN(C)c1cccc2c(S(=O)(=O)N3CCC[C@H]3C(=O)N[C@@H](CCCNC(=N)N)C(=O)N3CCC[C@H]3C(=O)N[C@@H](CCCNC(=N)N)C(=O)N3CCC[C@H]3C(=O)N[C@@H](CCCNC(=N)N)C(=O)N3CCC[C@H]3C(=O)N[C@@H](CCCNC(=N)N)C(=O)N3CCC[C@H]3C(=O)N[C@@H](CCCNC(=N)N)C(=O)N3CCC[C@H]3C(=O)N[C@@H](CCCNC(=N)N)C(=O)N3CCC[C@H]3C(=O)N[C@@H](CCCNC(=N)N)C(=O)N3CCC[C@H]3C(=O)N[C@@H](CCCNC(=N)N)C(=O)N3CCC[C@H]3C(=O)N[C@@H](CCCNC(=N)N)C(=O)N3CCC[C@H]3C(=O)N[C@@H](CCCNC(=N)N)C(=O)O)cccc12 [Dnc-PR10, Dansyl-NH-(Pro-Arg)10-COOH] (Dansyl-PRPRPRPRPRPRPRPRPRPR-OH)
Kapβ2; [2]
  fluorescence intensity / spectrum change on addition of Kapβ2: increased in a Kapβ2 concentration-dependent manner

## CN(C)c1cccc2c(S(=O)(=O)N3CCC[C@H]3C(=O)N[C@@H](CCCNC(=N)N)C(=O)N3CCC[C@H]3C(=O)N[C@@H](CCCNC(=N)N)C(=O)N3CCC[C@H]3C(=O)N[C@@H](CCCNC(=N)N)C(=O)N3CCC[C@H]3C(=O)N[C@@H](CCCNC(=N)N)C(=O)N3CCC[C@H]3C(=O)N[C@@H](CCCNC(=N)N)C(=O)N3CCC[C@H]3C(=O)N[C@@H](CCCNC(=N)N)C(=O)N3CCC[C@H]3C(=O)N[C@@H](CCCNC(=N)N)C(=O)N3CCC[C@H]3C(=O)N[C@@H](CCCNC(=N)N)C(=O)N3CCC[C@H]3C(=O)N[C@@H](CCCNC(=N)N)C(=O)N3CCC[C@H]3C(=O)N[C@@H](CCCNC(=N)N)C(=O)N3CCC[C@H]3C(=O)N[C@@H](CCCNC(=N)N)C(=O)N3CCC[C@H]3C(=O)N[C@@H](CCCNC(=N)N)C(=O)N3CCC[C@H]3C(=O)N[C@@H](CCCNC(=N)N)C(=O)N3CCC[C@H]3C(=O)N[C@@H](CCCNC(=N)N)C(=O)N3CCC[C@H]3C(=O)N[C@@H](CCCNC(=N)N)C(=O)N3CCC[C@H]3C(=O)N[C@@H](CCCNC(=N)N)C(=O)N3CCC[C@H]3C(=O)N[C@@H](CCCNC(=N)N)C(=O)N3CCC[C@H]3C(=O)N[C@@H](CCCNC(=N)N)C(=O)N3CCC[C@H]3C(=O)N[C@@H](CCCNC(=N)N)C(=O)N3CCC[C@H]3C(=O)N[C@@H](CCCNC(=N)N)C(=O)O)cccc12 [Dnc-PR20, Dansyl-NH-(Pro-Arg)20-COOH] (Dansyl-PRPRPRPRPRPRPRPRPRPRPRPRPRPRPRPRPRPRPRPR-OH)
MBP-FUS; 1600 nM MBP-FUS, probe 300 nM, excitation 340 nm
  540 nm fluorescence intensity increase compared to the fluorescence intensity at 0 nM MBP-FUS: approximately 4.6 fold
MBP-FUS; MBP-FUS solution 1600 nM (Figure 8)
  520 nm fluorescence: above 1000
MBP-FUS; [2]
  fluorescence intensity / spectrum change on addition of MBP-FUS: increased in an MBP-FUS concentration-dependent manner
Impβ
  520 nm fluorescence: above 1000
Kapβ2; 1600 nM Kapβ2, probe 300 nM, excitation 340 nm
  540 nm fluorescence intensity increase compared to the fluorescence intensity at 0 nM Kapβ2: approximately 6.1 fold
Kapβ2; Kapβ2 solution 1600 nM (Figure 8)
  520 nm fluorescence: above 1000
Kapβ2; [2]
  fluorescence intensity / spectrum change on addition of Kapβ2: increased in a Kapβ2 concentration-dependent manner
β-lactoglobulin
  fluorescence spectrum / 540 nm fluorescence intensity change on addition of β-lactoglobulin: slightly increased
β-lactoglobulin; β-lactoglobulin solution 1600 nM (Figure 8)
  520 nm fluorescence: above 1000
[1]
  fluorescence spectrum change on addition of the other proteins: did not exhibit substantial changes
Imb-2
  520 nm fluorescence: above 1000
Impα
  520 nm fluorescence: above 1000

## Dansyl-NH-(Gly-Ala)19-COOH (Dansyl-GAGAGAGAGAGAGAGAGAGA-OH) [Dnc-GA10]
Kapβ2; [2]
  fluorescence intensity / spectrum change on addition of Kapβ2: unchanged
